Drawing on patent US4322528A (priority 1979, dated 1982), this text covers mortality for 4 molecules.

Like-named read-outs stand apart in the source and are kept apart here.

Common to all, as to assay: whole plant or invertebrate
In test [1] the test system is Parathion-resistant Two-spotted Spider Mite Egg. Conditions: Tetranychus urticae, foliar, read-out: Parathion-resistant Two-spotted Spider Mite, Egg, % control @ ppm.
A further test has as its system Tobacco Budworm Larvae. To be noted: Heliothis virescens, foliar, read-out: Tobacco Budworm Larvae, Leaf Feed, % control @ ppm.
A further test concerns Housefly Adult. Conditions: Musca domestica, read-out: Housefly Adult, Contact Spray, % control @ ppm.
For the next test, the system named is Housefly Larvae. Conditions: Musca domestica, soil, 168 h.
The test system of test [2] is Hock Colorado Potato Beetle 2nd Stg. Larva. Conditions: Leptinotarsa decemlineata, foliar, read-out: Hock Colorado Potato Beetle 2nd Stg. Larva, Leaf Feed, % control @ ppm.
In another test the test system is Cabbage Looper Larvae. To be noted: Trichoplusia ni, foliar, read-out: Cabbage Looper Larvae, Leaf Feed, % control @ ppm.
Where [3] appears, read: read-out: 7-Day Exposure Housefly Larvae Treatment, % control @ ppm.
Where [4] appears, read: read-out: 7-Day Exposure Housefly Larvae Treatment, % control, C @ ppm (second sub-column).

As to `ClC1=C(Cl)C2(Cl)C(c3ccccc3)CN1C2(Cl)Cl` (centres unmarked) [Ex. 4, 1-aza-5-phenyl-2,3,4,7,7-pentachlorobicyclo[2.2.1]-2-heptene], the mortality at 40 ppm came out at 77% in test [1] and 43% in the test with Housefly Larvae (setting [3]). Moreover, the mortality at 500 ppm in the test with Tobacco Budworm Larvae worked out at 66%; in test [2], 50%. The mortality at 100 ppm with Housefly Adult turned out to be 10%.
As to `ClC1=C(Cl)C2(Cl)C3c4ccccc4CC3N1C2(Cl)Cl` (centres unmarked) [Ex. 5, 1-aza-4,5-benzo-7,8,9,10,10-pentachlorotricyclo[5.2.1.0^2.6]-8-decene], the mortality at 40 ppm was 13% in test [1] and 47% with Housefly Larvae (setting [3]). The mortality at 500 ppm with Tobacco Budworm Larvae worked out at 6%. Also, the mortality at 100 ppm in the test on Housefly Adult was 42%.
Turning to `CCOP(=S)(OCC)Oc1cc(C)nc(C(C)C)n1` [Diazinon, reference compound], the mortality at 40 ppm in the test on Housefly Larvae (setting [4]) came to 37%.
For the molecule `ClC1=NC(Cl)(Cl)C2(Cl)C3CC(C(Cl)C3Cl)C12Cl` (centres unmarked) [Ex. 3, 4-aza-2,3,5,5,6,8,9-heptachlorotricyclo[5.2.1.0^2.6]dec-3-ene], the figures for the mortality at 40 ppm (in test [1]; with Housefly Larvae (setting [4])) were 31% and 67%, respectively. For the same molecule, the mortality at 100 ppm with Housefly Adult amounted to 83%. Moreover, in the test on Cabbage Looper Larvae, the mortality at 500 ppm amounted to 26%.
